Patent publication US8148392B2, “2-indolyl imidazo [4,5-d] phenanthroline derivatives and their use in the treatment of cancer” (Lorus Therapeutics Inc., priority 2005, dated 2012)
“Also recorded” adds a separate entry of the source.

Legend:
KLF4 = KLF4 mRNA in HT-29 tumour xenografts, RT-PCR; format: in vivo, CD-1 female nude mice
Description: The ability of compound 3 to modulate expression of KLF4 in HT-29 colon tumour xenograft was determined as follows. Groups of 10 CD-1 female nude mice (6-7 weeks) were injected in the lower mid back with human colon adenocarcinoma cells HT-29 cells (3×10^6 cells in 0.1 ml PBS) subcutaneously. […] After the treatment period, the animals were sacrificed, the tumours excised, and total RNA was extracted from 30 mg of tumour tissue using Rneasy Mini kit (QIAGEN, Valencia, Calif.). The expression of KLF4 mRNA was analyzed by real-time polymerase chain reaction using the comparative CT method as described in Example 19. […]
To examine the effect of compound 3-mediated changes in KLF4 and Cyclin D1 expressions in vivo, the expressions of respective genes in xenograft tissues of vehicle control (Lutrol) and compound 3-treated HT-29 colon cancer cell-transplanted mice were analyzed by RT-PCR (FIG. 46). Briefly, KLF4 and Cyclin D1 gene expression in HT-29 xenograft tissues after 14 days treatment with compound 3 was measured as follows. […] Total RNA was extracted and gene expression level was determined by RT-PCR. […]
The tumor regression efficacy of compound 3 was assessed in compound 3-treated HT-29-transplanted athymic mice (FIG. 54A), and correlated with gene expressions of MTF-1, KLF4 and Cyclin D1 in HT-29 xenograft tissues (FIG. 54B). […]

[1] = system: MT-1 isolated from rabbit liver; test: Chelation of zinc from metallothionein MT-1, PAR colorimetric zinc assay; format: biochemical; details: 25 μM MT, compound 0.15 to 60 μM, 15 min
Description: Intracellular zinc exists as a labile pool, loosely bound to storage proteins metallothioneins (MT), which store up to 7 or 8 zinc per molecule. The labile zinc pool donates zinc to enzymes or transcription factors, which require reversible binding with zinc for their full activity (Tapiero and Tew (2003) Biomed Pharmacother 57(9): 399-411). The efficiency of compound 3 to remove zinc from MT was investigated. MT-1 isolated from rabbit liver, containing mainly MT-1a and MT-2e with ˜7 zinc per molecule in ≧95% of MT was purchased from Alexis Biochemicals (Lausen, Switzerland). The content of zinc in MT was measured in vitro using 4-(2-pyridylazo) resorcinol (PAR) colorimetric zinc assay as described in the preceding Examples. The change in absorbance of PAR after PAR-zinc ion complex formation was measured at 500 nm (Dinkova-Kostova et al., (2005) Biochemistry 44(18): 6889-6899). To determine chelation of zinc from MT-1 by compound 3 in vitro, MT-125 μM in […] volume of 0.2M Tris-HCl, pH 7.5 was added to 96-well plate. Compound 3 (0.15 to 60 μM) in 80% acetonitrile/20% DMSO was added to MT-1 for 15 min at room temperature. PAR (200 μM in 0.2M Tris-HCl, pH 7.5) was added and the color development of PAR-zinc complex was measured by a multi-well spectrophotometer at 500 nm as shown in FIG. 47.

KLF4 protein = KLF4 protein in HT-29 cells, Western blot; format: cell-based, human; details: HT-29, 2.5, 5, 7.5 and 10 μM, 16 hours
Description: The ability of compound of Formula I to increase expression of KLF4 protein was determined as follows. HT-29 cells were treated with vehicle control (DMSO), TPEN (4 μM), ZnCl2 (100 μM), or compound 3 (2.5, 5, 7.5 and 10 μM) for 16 hours. Cells were lysed and subjected to Western blot with anti-KLF4 antibodies, or GAPDH antibodies to ensure equal protein loading.

supercoiled plasmid DNA = test: In vitro DNA cleavage assay; format: biochemical
How it was run: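 Supercoiled plasmid DNA (1 μg) in 10 mM sodium phosphate pH 6.7 with 100 μM ascorbate, 25 μM compound and 10 μM CuSO4 was kept 30 min at 37° C., stopped with EDTA and resolved on 1% agarose. Variants used 25 μM Cu, Zn or Fe salts, or compound:Cu ratios set with one component held at 10 μM.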

**Q.** For `Cc1[nH]c2ccccc2c1-c1nc2c3cccnc3c3ncccc3c2[nH]1` [Compound 3], which “induction of KLF4 in tumour xenografts” value (KLF4; 50 mg/kg/d, 35 days, versus vehicle) is on record?
**A.** The value was “approximately 1.5 fold”.

**Q.** What about the “KLF4 gene expression in xenograft tissue, change” value (KLF4; 100 mg/kg i.p., 14 days or 2 cycles of 5 days) of the same compound?
**A.** The value was “increase in KLF4 gene; also recorded: significant increase in KLF4”.

**Q.** And the “PAR absorbance of MT (removal of zinc from metallothionein)” value [1]?
**A.** Its value is “Dose-dependent decreases in PAR absorbance”.

**Q.** And the “level of KLF4 protein” value (KLF4 protein)?
**A.** Its value is “able to increase the level of KLF4 protein”.

**Q.** What about the “cleavage of plasmid DNA” value (supercoiled plasmid DNA; 25 μM ZnCl2 or FeCl2 instead of copper) of the same compound?
**A.** The value was “Neither zinc nor iron was able to replace copper”.

**Q.** And the “cleavage of plasmid DNA” value (supercoiled plasmid DNA; 25 μM compound, 10 μM CuSO4, 100 μM ascorbic acid, 37° C., 30 minutes)?
**A.** Its value is “able to cleave plasmid DNA”.

**Q.** And the “cleavage of plasmid DNA” value (supercoiled plasmid DNA; absence of copper or reducing agent)?
**A.** Its value is “Neither compound 3 nor OP was able to cleave DNA”.

**Q.** And the “cleavage of plasmid DNA” value (supercoiled plasmid DNA; ratio compound to copper 1:3)?
**A.** The value was “able to cleave at a ratio of 1:3”.

**Q.** What about the “cleavage of plasmid DNA” value (supercoiled plasmid DNA; ratios compound to copper 1:1, 1:2, 1:2.5) of the same compound?
**A.** Its value is “unable to cleave”.
